“And” between values parts separate entries of the source, which are not always exact repeats. Equal values may be shown once. Read-outs that look alike come from different tables or passages of the source.
Legend:
[1] = system: HT29 (colon) cancer cells; assay: Apoptosis study (TdT assay) and cell growth; format: cell-based, human
Procedure: (§1) Summary of test results: The extent of apoptosis is measured in human tumor cell lines after treatment for 1, 2, 3 and 4 days with carbendazim. At each of these time points, the cells are harvested and assayed using the terminal deoxynucleotidyl transferase (TdT) assays. Both microscopy and flow cytometry were used for the TdT assay.
(§2) In MCF7, HT29, B16 and SK-MES cell lines, there was a concentration dependent effect on cell growth. […] After completion of the studies on the MCF7 and HT29 cell lines, it was evident that the 0.1 μg/ml concentration had little effect on either apoptosis or cell growth. Therefore subsequent assays were with 5 μg/ml instead of 0.1 μg/ml.

Rhabdomysarcoma = Rhabdomysarcoma model, tumor weight; format: in vivo; settings: 3000 (mg/kg) group, once weekly p.o.
Text: The dose response effect of carbendazim in mice infected with various cancer types was studied in standard screening tests.
The results of these studies conducted to study the dosage response of carbendazim on various cancer types are summarized below. […] Efficacy of carbendazim has been shown in the following cancers:
In the Rhabdomysarcoma model, a childhood cancer, at day 29 carbendazim at doses of 3000, 4000 and 5000 (mg/kg given once weekly, p.o.) is quite effective against this tumor with no toxicity in the 3000 (mg/kg) group. Topotecan (i.p., qd×5) is quite active against this model.

SK-MES cells (lung) = assay: Apoptosis study (TdT assay) and cell growth; format: cell-based, human
Procedure: as §1, §2
The growth of SK-MES cells was slowed done by all concentrations of carbendazim past day 1.

A549 lung tumor cells = assay: MTT cell viability test, lung tumor cells; format: cell-based, human; settings: MTT, 5 day incubation
[2] = system: HIV-1 in ACH-2 cells (T cell line A3.01); assay: Additional chronic HIV studies, T cells; format: cell-based; settings: concentration not given
Procedure: Chronic HIV-1 infected cells U1 were derived from an acute HIV-1 infection of the promonocytic cell line, U937. The chronic HIV-1 infected cells, ACH-2 were derived from an acute HIV-1 infection of the T cell line, A3.01.
These cells were cultured in medium and the phorbol ester, PMA. PMA causes the cells (both U1 and ACH-2) to be activated and not divide but it also causes the U-1 cells to differentiate. […] Cell viability was measured when these cell lines were treated with the test compound.
Both cell lines constituitively produce a small amount of HIV-1. ACH-2 cell lines tend to produce more HIV-1 than U1 cells as shown by p24 ELISA. When either cell line is cultured in the presence of PMA there is an increase in the quantity of HIV-1 produced as measured by the p24 antigen ELISA.
In addition, the number of […] positive HIV mRNA expressing cells per microscopic field is measured. Comparisons can be made from these numbers since the same number of cells were adhered to the glass slides for each drug concentration 10×10^6 cells/ml).
These cells were treated with test samples. […] The positive control was interferon which suppressed HIV monocytes replication by 80%.

lung = format: in vivo; settings: A549-lung, 500 mg/kg
HIV = assay: microbe, parasite or virus in culture; format: cell-based
B-16 mouse melanoma = settings: for Increased Life Span: B16 melanoma
Procedure: The data in Tables 1, 2 and 3 are reported in T/C which is interpreted using the following scale:
long term survivors for P388 is >30 days, for B16 it is >60 days. The NCI Measure of Success is T/C=125.
This study was performed in black mice injected i.p. with B-16 mouse melanoma which many researchers believe is the most predictive model for efficacy in humans. […] Death is the end point in this model.

MX1 breast cells = assay: MTT cell viability test, breast tumor cells; format: cell-based, human; settings: 5 day incubation
[3] = system: Human Tumor Colony Forming Units; assay: In Vitro Human Tumor Colony Forming Units Test; settings: for tumors that had ≧50% survival / tumors tested, total line: all tumor types
influenza = assay: In vivo model for influenza; set-up: species or system mice; settings: mouse, in vivo
Procedure: The positive control was amantadine (75 mg/kg) with 100% of the mice surviving for 21 days. 2-(Methoxycarbonylamino)benzimidazole was not active in the same test.

HT29 colon tumor cells = assay: MTT cell viability test, colon tumor cells; format: cell-based, human; settings: MTT, 5 day incubation
rhinovirus = assay: In vitro rhinovirus model; format: cell-based
[4] = system: B16 murine melanoma cell line; assay: Apoptosis study (TdT assay) and cell growth; format: cell-based
Procedure: as §1, §2
The concentration effects at days 1-4 were much more evident after normalization of the apoptosis for the growth rates.

[5] = system: MX1 breast cancer tumors implanted subcutaneously; assay: Tumor growth reduction in mice models (Table 5), breast; format: in vivo; settings: MXI-breast

## COC(=O)Nc1nc2ccccc2[nH]1 [carbendazim, 2-methoxycarbonylamino-benzimidazole]
[1]; 10 μg/ml, days 3 and 4
  apoptosis: > 25%
[1]; below 10 μg/ml
  cell growth: not largely slowed down
Rhabdomysarcoma
  toxicity: no toxicity
SK-MES cells (lung); all concentrations, past day 1
  cell growth: slowed done
SK-MES cells (lung); days 1-4 microscopic TdT assay, days 3 and 4 flow cytometry
  percent of apoptosis: concentration-response effect
A549 lung tumor cells; A549, first column
  EC-50 Result: 0.856 ppm
A549 lung tumor cells; A549, second column
  EC-50 Result: 0.836 ppm
[2]
  increase of T-cell HIV replication: 44%
lung
  Tumor Growth Decrease (%): 57%
HIV
  therapeutic index (TI), ratio of toxic dose to efficacious dose: 1.8
HIV; Human immunodeficiency virus 1, read-out: inhibition of viral replication
  inhibition at 4 µg/mL: 100%
B-16 mouse melanoma; 500 mg/kg twice weekly
  T/C: 141
  weight change (%): −0.64%
B-16 mouse melanoma; 1000 mg/kg twice weekly
  T/C: 176
  weight change (%): −4.75%
B-16 mouse melanoma; 1250 mg/kg twice weekly
  T/C: 124
  weight change (%): +1.99%
B-16 mouse melanoma; 2000 mg/kg twice weekly
  T/C: 169
  weight change (%): −11.63%
B-16 mouse melanoma; 2500 mg/kg twice weekly
  T/C: 169
  weight change (%): +3.16%
B-16 mouse melanoma; 5000 mg/kg twice weekly
  T/C: 198
  weight change (%): −0.64%
B-16 mouse melanoma; 1000 mg/kg
  Increased Life Span: 131%
B-16 mouse melanoma; 2000 mg/kg
  Increased Life Span: 163%
B-16 mouse melanoma; 4000 mg/kg
  Increased Life Span: 187%
MX1 breast cells; MX1, first column
  EC-50 Result: 0.829 ppm
MX1 breast cells; MX1, second column
  EC-50 Result: 0.856 ppm
[3]; 1 Hour Exposure, 0.5 μg/ml
  positive results / tumors tested: 0/1
[3]; 1 Hour Exposure, 5.0 μg/ml
  positive results / tumors tested: 0/1
[3]; 1 Hour Exposure, 50.0 μg/ml
  positive results / tumors tested: 0/1
[3]; Brain, 2nd '1 Hour Exposure' group, c4-c7 = 0.5, 5.0, 10, 50 μg/ml
  tumors that had ≧50% survival / tumors tested: 0/2 and 2/2
[3]; Breast, 1 Hour Exposure, c1-c3 = 0.5, 5.0, 50 μg/ml
  tumors that had ≧50% survival / tumors tested: 0/1
[3]; Breast, 2nd '1 Hour Exposure' group, c4-c7 = 0.5, 5.0, 10, 50 μg/ml
  tumors that had ≧50% survival / tumors tested: 0/3 and 0/4 and 0/1 and 2/3
[3]; Cervix, 2nd '1 Hour Exposure' group, c4-c7 = 0.5, 5.0, 10, 50 μg/ml
  tumors that had ≧50% survival / tumors tested: 0/1 and 1/1
[3]; Colon, 1 Hour Exposure, c1-c3 = 0.5, 5.0, 50 μg/ml
  tumors that had ≧50% survival / tumors tested: 0/1
[3]; Colon, 2nd '1 Hour Exposure' group, c4-c7 = 0.5, 5.0, 10, 50 μg/ml
  tumors that had ≧50% survival / tumors tested: 0/5 and 1/5 and 2/5
[3]; Continuous Exposure, 0.5 μg/ml
  positive results / tumors tested: 0/14
[3]; Continuous Exposure, 5.0 μg/ml
  positive results / tumors tested: 3/14
[3]; Continuous Exposure, 50.0 μg/ml
  positive results / tumors tested: 5/14
[3]; Head & Neck, 1 Hour Exposure, c1-c3 = 0.5, 5.0, 50 μg/ml
  tumors that had ≧50% survival / tumors tested: 0/1
[3]; Head & Neck, 2nd '1 Hour Exposure' group, c4-c7 = 0.5, 5.0, 10, 50 μg/ml
  tumors that had ≧50% survival / tumors tested: 0/1 and 1/1
[3]; Kidney, 1 Hour Exposure, c1-c3 = 0.5, 5.0, 50 μg/ml
  tumors that had ≧50% survival / tumors tested: 0/1
[3]; Kidney, 2nd '1 Hour Exposure' group, c4-c7 = 0.5, 5.0, 10, 50 μg/ml
  tumors that had ≧50% survival / tumors tested: 0/2 and 1/2
[3]; Lung, non-small cell, 1 Hour Exposure, c1-c3 = 0.5, 5.0, 50 μg/ml
  tumors that had ≧50% survival / tumors tested: 0/1
[3]; Lung, non-small cell, 2nd '1 Hour Exposure' group, c4-c7 = 0.5, 5.0, 10, 50 μg/ml
  tumors that had ≧50% survival / tumors tested: 0/6 and 2/6 and 0/1 and 2/5
[3]; Melanoma, 1 Hour Exposure, c1-c3 = 0.5, 5.0, 50 μg/ml
  tumors that had ≧50% survival / tumors tested: 0/2 and 1/2
[3]; Melanoma, 2nd '1 Hour Exposure' group, c4-c7 = 0.5, 5.0, 10, 50 μg/ml
  tumors that had ≧50% survival / tumors tested: 0/3 and 1/3 and 2/3
[3]; Mesothelioma, 2nd '1 Hour Exposure' group, c4-c7 = 0.5, 5.0, 10, 50 μg/ml
  tumors that had ≧50% survival / tumors tested: 0/1
[3]; Ovary, 1 Hour Exposure, c1-c3 = 0.5, 5.0, 50 μg/ml
  tumors that had ≧50% survival / tumors tested: 0/3
[3]; Ovary, 2nd '1 Hour Exposure' group, c4-c7 = 0.5, 5.0, 10, 50 μg/ml
  tumors that had ≧50% survival / tumors tested: 0/1 and 2/13 and 10/13
[3]; Sarcoma, 1 Hour Exposure, c1-c3 = 0.5, 5.0, 50 μg/ml
  tumors that had ≧50% survival / tumors tested: 0/1 and 1/1
[3]; Sarcoma, 2nd '1 Hour Exposure' group, c4-c7 = 0.5, 5.0, 10, 50 μg/ml
  tumors that had ≧50% survival / tumors tested: 0/1 and 1/1
[3]; Stomach, 2nd '1 Hour Exposure' group, c4-c7 = 0.5, 5.0, 10, 50 μg/ml
  tumors that had ≧50% survival / tumors tested: 0/1 and 1/1
[3]; Unknown Primary, 2nd '1 Hour Exposure' group, c4-c7 = 0.5, 5.0, 10, 50 μg/ml
  tumors that had ≧50% survival / tumors tested: 0/1
[3]; Uterus, 2nd '1 Hour Exposure' group, c4-c7 = 0.5, 5.0, 10, 50 μg/ml
  tumors that had ≧50% survival / tumors tested: 0/3 and 2/3
[3]; 1 Hour Exposure, c1-c3 = 0.5, 5.0, 50 μg/ml
  tumors that had ≧50% survival / tumors tested, total line: 0/11 and 2/11
[3]; 2nd '1 Hour Exposure' group, c4-c7 = 0.5, 5.0, 10, 50 μg/ml
  tumors that had ≧50% survival / tumors tested, total line: 0/4 and 6/44 and 0/3 and 27/41
influenza
  activity: not active
HT29 colon tumor cells; HT29, first column
  EC-50 Result: 0.621 ppm
HT29 colon tumor cells; HT29, second column
  EC-50 Result: 0.662 ppm
rhinovirus
  therapeutic index (TI), ratio of toxic dose to efficacious dose: 1-3
[4]; all concentrations
  growth rates: affected the growth rates
[4]; days 14 by TdT microscopy and days 2-4 by flow cytometry
  apoptosis: Some concentration dependent effects
[5]; 500 mg/kg
  Tumor Growth Decrease (%): 42%
[5]; 2500 mg/kg
  Tumor Growth Decrease (%): 37%
